Assay results: patent US20250346782A1 (W. L. Gore & Associates, Inc., priority 2022, published 2025)

What was measured:
[1] = Nitric oxide (NO) release, Berkeley nitric oxide test strips (Evaluation Method Ai); assay type: physicochemical; conditions: 37° C.; for onset of release of NO from the coating / time at which steady state of NO release / nitrite anion concentration is reached: coating of compound alone on ePTFE film, PBS 10 mM with 100 μM EDTA; for delayed release of NO from the coating / time at which steady state concentration of nitrite anion is reached: coating with VDF-HFP fluoropolymer on ePTFE film, PBS
Procedure: The ability of a chemical entity as described herein, or surface having a coating comprising a chemical entity as described herein, to release nitric oxide (NO) is assessed using commercially available Berkely nitric oxide test strips (“Berkeley Life Nitric Oxide Saliva Test Strips”). Instructions for use for such test strips are provided with the packaging of the Berkely nitric oxide test strips, and additionally are described in WO2013/023217A1 and WO2014/039794A2 (incorporated herein by reference).The test strips provide a semi-quantitative measure of NO-derived analytes (primarily aqueous nitrite anion) rather than NO itself, because as is known to the art (Ignarro et al., 1993), aqueous NO has a very short half-life of only seconds, whereas aqueous nitrite anion (which derives from aqueous NO) has a half-life of several hours. As such, the nitrite anion is an appropriate surrogate to measure aqueous NO concentrations. The test strips comprise a nitrite detection pad containing dry chemical reagents responsive to different nitric oxide analytes, thereby, indicating concentrations of nitric oxide. The test strips are capable of detecting a concentration range of the nitric oxide analyte from 0 to 400 μmol/L nitrite with visibly distinct intensities of colorimetric sub-ranges expressed as a red colour (i.e., approximately 700 nm wavelength) of increasing intensity, qualitatively corresponding to micromolarity, specifically, but not limited to: 0 μM, 1 μM to 25 μM, 25 μM to 100 μM, 100 μM to 200 μM, 200 μM to 350 μM, and greater than 400 μM nitrite.
The surface having a coating to be assessed is submerged in a test solution of PBS, 10.0 mM, pH 7.4, with 100 μM EDTA. NO concentration is assessed at given timepoints by dipping the test strip in the solution. After 5 seconds, the test strip is removed, the strip is folded over and the sample pad is gently pressed against the test pad and held for 10 seconds. The ends are separated and compared to the Berkeley Test Nitric Oxide Scale, where the visibly distinct colorimetric sub-ranges comprise 6 subjective levels of intensity of red wavelengths (i.e., approximately 700 nm wavelength), corresponding to 0 μM, 25 μM, 100 μM, 200 μM, 350 μM, and 400 μM of nitric oxide-derived analytes, depending upon the qualitative intensity of red subjectively observed by a user. […] As shown in the Examples below, because each strip is assigned to one of the 6 subjective intensity levels (the sixth being no response), the resulting NO release plot has discrete jumps rather than a continuous curve, although in practice continuous release is expected to be occurring.
In separate experiments, chloroform solutions of S-nitrosothiol-containing compound 16 (Example 19) and compound 17 (Example 20) were deposited dropwise onto ePTFE films secured on embroidery hoops, allowing the solvents to evaporate as the solutions were deposited. Once the solvents had evaporated and the resulting coatings were dry, 10 mL of a PBS buffer solution comprising 10 mM phosphate buffered saline with 100 μM EDTA, was poured over the individual coated films in round, polyethylene containers with screw-cap lids and placed in a 37° C. water bath. The PBS buffer solutions were tested periodically for NO release according to Evaluation Method Ai. The NO release profile for the film coated with compound 16 is shown in FIG. 4, and for the film coated with compound 17, in FIG. 5.
In separate experiments, acetone solutions of 50 mg of the S-nitrosothiol-containing compound 16 (Example 19), compound 18 (Example 22), and copolymer 20 (Example 23) were added to individual mixtures of 200 mg of VDF-HFP fluoropolymer in 10 mL of acetone. The green mixtures were then poured onto 3-inch disks of ePTFE films secured on embroidery hoops, and the solvents evaporated under a stream of argon. […]

[2] = as above; assay type: physicochemical; conditions: PBS, 37° C.
[3] = Example 30, FIG. 12: silicone coating on ePTFE film
[4] = coating with VDF-HFP fluoropolymer on Pebax nylon film
[5] = coating with VDF-HFP fluoropolymer on ePE film
[6] = coating with VDF-HFP fluoropolymer on stainless steel foil

SMILES | onset of release of NO from the coating [1] | time at which steady state of NO release / nitrite anion concentration is reached [1] [days] | delayed release of NO from the coating [1] [days] | time at which steady state concentration of nitrite anion is reached [1] [days] | onset of release of NO from the coating [2, 3] | time at which steady state concentration of nitrite anion is reached [2, 3] [days] | delayed release of NO from the coating [2, 4] [days] | time at which steady state concentration of nitrite anion is reached [2, 4] [days] | delayed release of NO from the coating [2, 5] [days] | time at which steady state concentration of nitrite anion is reached [2, 5] [days] | delayed release of NO from the coating [2, 6] [days] | time at which steady state concentration of nitrite anion is reached [2, 6] [days]
CC(C)(SN=O)C(NC(=O)CCCCC(=O)NC(C(=O)NCc1ccccc1)C(C)(C)SN=O)C(=O)NCc1ccccc1 (stereo not shown) [Compound 16] | immediate release | 5 | 2 | 8 |  |  |  |  |  |  |  | 
CC(C)(SN=O)C(NC(=O)CCCCC(=O)NC(C(=O)Nc1ccccc1)C(C)(C)SN=O)C(=O)Nc1ccccc1 (stereo not shown) [Compound 17, S,S′-((adipoylbis(azanediyl))bis(2-methyl-4-oxo-4-(phenylamino)butane-3,2-diyl)) dinitrothioite] | immediate release | 7 |  |  |  |  |  |  |  |  |  | 
CC(C)(SN=O)C(NC(=O)c1cc(C(=O)NC(C(=O)NCc2ccccc2)C(C)(C)SN=O)cc(C(=O)NC(C(=O)NCc2ccccc2)C(C)(C)SN=O)c1)C(=O)NCc1ccccc1 (stereo not shown) [Compound 18, S,S′,S″-(((benzene-1,3,5-tricarbonyl)tris(azanediyl))tris(4-(benzylamino)-2-methyl-4-oxobutane-3,2-diyl)) trinitrothioite] |  |  | 2 | 12 | immediate first release | 7 | 4 | 13 | 2 | 15 | 9 | 14
